Results on four molecules are retold here after ChEMBL document CHEMBL1155728, “New steroid glycosides from the starfish Asterias rathbuni” (J Nat Prod, 2001).

Molecules are shown by their SMILES.

Common to all, as to set-up: species or system Egg
Data set [1] in a line: Inhibition of cell division of fertilized eggs of Strongylocentrotus intermedius at 2.9 X 10 ' -5 M. The note with it: fertilized sea urchin eggs.
A short description of data set [2]: Inhibition of cell division of fertilized eggs of Strongylocentrotus intermedius.
Data set [3] in a line: Inhibition of cell division of fertilized eggs of Strongylocentrotus intermedius at 7 X 10 ' -5 M. The note with it: fertilized sea urchin eggs.

Consider `CC(C)=CC(=O)C[C@@H](C)[C@H]1CC[C@H]2[C@@H]3C[C@H](O)[C@H]4C[C@@H](OS(=O)(=O)O)CC[C@]4(C)C3=CC[C@]12C`, for which the inhibition – broadly, the change of the read-out against control, counted positive when it falls – at 29 µM in data set [1] is 100%.

As for `CC(C)[C@H](CC[C@@H](C)[C@H]1C[C@H](OS(=O)(=O)[O-])[C@H]2[C@@H]3C[C@H](O)[C@H]4C[C@@H](O)CC[C@]4(C)[C@H]3CC[C@@]21C)O[C@@H]1OC[C@@H](O)[C@H](O)[C@H]1O.[Na+]` [AMURENSOSIDE A], the IC100 in data set [2] was 1.9 ×10⁻⁴ M.

Turning to `CC(C)[C@H](CC[C@@H](C)[C@H]1C[C@@H](O)[C@H]2[C@@H]3C[C@H](O)[C@H]4C[C@@H](O)CC[C@]4(C)[C@H]3CC[C@@]21C)O[C@@H]1OC[C@@H](O)[C@H](O)[C@H]1O` [RATHBUNIOSIDE R1], in data set [3], the inhibition at 70 µM was 100%.

As for `CC(C)[C@H](CC[C@@H](C)[C@H]1C[C@H](O)[C@H]2[C@@H]3C[C@@H](O)[C@@]4(O)C[C@@H](O)CC[C@]4(C)[C@H]3CC[C@@]21C)O[C@@H]1OC[C@@H](O)[C@H](O)[C@H]1O` [RATHBUNIOSIDE R2], the IC100 in data set [2] came out at 1.7 ×10⁻⁴ M.
